# What was measured:
# [1] = tested on: 100 kDa polypeptide (MtNFBS2); assay: Photolabeling of the 100 kDa polypeptide in membrane fractions, with excess competitors; assay type: binding, Medicago truncatula; settings: 2 μM competitor, 5 nM azido ligand, dmi3 membrane fraction
# From the text: To assess the molecular mass of the affine protein of Nod factors responsible for binding properties of MtNFBS2, a photolabeling with Nod factors analogs containing a photoactivatable group, which after irradiation in a given wavelength reactive species which can form a covalent bond with the surrounding molecules, has been taken. […] homologues of these molecules have been synthesized and labeled with ^35S to enable detection of the stable complex ligand/binding protein.
# For photolabeling, 5 nM of radioactive and photoactivatable ligand, alone or in the presence of an excess (2 μM) different competitors were incubated in binding buffer, in the same conditions as described in Example 1 above for the binding experiments at equilibrium, with 300 micrograms of membrane protein fraction obtained from cultured cells of wild-type Medicago truncatula (A 17), or the dmi3 mutant of Medicago truncatula. After 1 hour of incubation, the samples were irradiated for 5 min at 254 nm or 10 min at 365 nm with a fluorescent tube at a distance of 4 cm. The free ligand was removed by centrifugation, and the membrane pellet was washed two times in binding buffer.
# The membrane pellet proteins were separated by polyacrylamide gel electrophoresis in 10% SDS, and transferred onto nitrocellulose membrane, and detection was carried out by autoradiography.
# LYR3 = LYR3 (Medicago truncatula, UniProt G7KAT5); assay: Saturation and competitive binding on LYR3-YFP expressed in N. benthamiana leaf membrane fractions; settings: for Ki: LYR3-YFP in N. benthamiana leaf membranes, competition with 0.9 nM LCO-IV(35S, C16:2Δ2,9), read-out: Affinity (nM) for LYR3 (Ki); for affinity / competition for binding to LYR3 (in words): competition with radioactive LCO
# From the text: Genes LYR3, LYK9 and LYR6 were inserted into a binary vector, fused in C-terminal with a fluorescent protein (Yellow Fluorescent Protein: YFP) and introduced into Nicotiana benthamiana leaves using agroinfiltration by Agrobacterium tumefaciens. Meanwhile, NFP and LYK3 genes which encode putative receptors […] Nod factors were inserted into the same vectors and expressed in the same conditions.
# 3 days after agro-infiltration, leaves of N. benthamiana expressing the different constructs were harvested and ground in liquid nitrogen. Membrane fractions were prepared from the ground material, using the same protocol as that described above for the preparation of microsomal fractions, except that 0.6% (w/v) of polyvinyl-polypyrrolidone were added to extraction buffer. After centrifugation at 3000×g, the supernatant was collected and centrifuged at 45000×g. The resulting (membrane fraction) pellet was resuspended in binding buffer, and stored at −80° C. in the presence of 10% or 50% glycerol, until use.
# Membrane proteins were separated by 10% polyacrylamide gel electrophoresis in SDS, and transferred onto nitrocellulose membrane, and detection of recombinant proteins made using anti-GFP antibody. Meanwhile, the properties of specific binding to LCOs were assessed by equilibrium binding, as described in Example 1, using 0.8 to 2.4 nM of LCO-IV (^35S, C16:2Δ2, 9) +/−2 μM of unlabeled LCO-IV (S, C16: 2Δ2, 9), and 25 micrograms to 80 micrograms of membrane protein, depending of the expression level of the protein labeled with YFP.
# To further characterize the binding properties of the protein LYR3, saturation binding experiments using LCO-IV (^35S, C16:2Δ2, 9) and competitive binding experiments in the presence of different COs or LCOs were performed.
# PsLYR3 = PsLYR3 (Lathyrus oleraceus, UniProt A0A9D5BD18); assay: Equilibrium, saturation and competitive binding on MtLYR3 ortholog expressed in N. benthamiana leaves; parameters: species or system Pisum sativum; settings: PsLYR3; for Ki: read-out: Affinity (Ki)
# From the text: (§1) In legumes, MtLYR3 orthologs have been identified in P. sativum, P. vulgaris and L. japonicus. In G. max orthologs exist in duplicate due to a duplication of the genome. The corresponding genes have been cloned and sequenced. A few differences in sequence compared with sequences in the databases were found which could be explained by the use of different varieties of plants or by sequencing errors in databases. The cloned genes were introduced into binary vectors, in C-terminal fusion with the fluorescent protein YFP, and introduced into Nicotiana benthamiana leaves using agroinfiltration by Agrobacterium tumefaciens, as described above in Example 3. The membrane fractions were isolated, their protein content was analyzed by electrophoresis under denaturing conditions, followed by immunodetection using anti-GFP antibody as described in Example 3, and their ability to interact with LCOs was determined by equilibrium binding, as described in Example 1, in the presence of 1 nM LCO-IV (S^35, C16:2Δ2, 9). The value of specific binding is determined by the value of difference between the total binding and the nonspecific binding obtained for incubation in the presence of an excess (2 μM) of unlabeled ligand. For comparison, the ability to interact of LjNFR5 and LjNFR1 receptors, identified in L. japonicus to play a role in nodulation by a genetic approach (MADSEN et al, Nature, 425, 637-40, 2003. RADUTOIU et al., Nature, 425, 585-92, 2003a) and respective orthologs of LYK3 and NFP in M. truncatula was determined under the same conditions.
# (§2) To further characterize the binding properties of MtLYR3 orthologs to LCOs, saturation and competitive binding experiments in the presence of different COs or LCOs were performed.
# GmLYR3-1 = GmLYR3-1 (Glycine max, UniProt A5YJW2); assay: as above; settings: GmLYR3-1; for Ki: read-out: Affinity (Ki)
# From the text: as §1, §2
# GmLYR3-11 = GmLYR3-11 (Glycine max, UniProt I1LHL9); assay: as above; settings: GmLYR3-11; for Ki: read-out: Affinity (Ki)
# From the text: as §1, §2
# LjLYS12 = LjLYS12 (Lotus japonicus, UniProt D3KTZ9); assay: as above; settings: LjLYS12; for Ki: read-out: Affinity (Ki)
# From the text: as §1, §2
# PvLYR3 = PvLYR3 (Phaseolus vulgaris, UniProt V7CFC1); assay: as above; settings: PvLYR3; for Ki: read-out: Affinity (Ki)
# From the text: as §1, §2
# PsLYR3, sequence (A0A9D5BD18 entry or part of it): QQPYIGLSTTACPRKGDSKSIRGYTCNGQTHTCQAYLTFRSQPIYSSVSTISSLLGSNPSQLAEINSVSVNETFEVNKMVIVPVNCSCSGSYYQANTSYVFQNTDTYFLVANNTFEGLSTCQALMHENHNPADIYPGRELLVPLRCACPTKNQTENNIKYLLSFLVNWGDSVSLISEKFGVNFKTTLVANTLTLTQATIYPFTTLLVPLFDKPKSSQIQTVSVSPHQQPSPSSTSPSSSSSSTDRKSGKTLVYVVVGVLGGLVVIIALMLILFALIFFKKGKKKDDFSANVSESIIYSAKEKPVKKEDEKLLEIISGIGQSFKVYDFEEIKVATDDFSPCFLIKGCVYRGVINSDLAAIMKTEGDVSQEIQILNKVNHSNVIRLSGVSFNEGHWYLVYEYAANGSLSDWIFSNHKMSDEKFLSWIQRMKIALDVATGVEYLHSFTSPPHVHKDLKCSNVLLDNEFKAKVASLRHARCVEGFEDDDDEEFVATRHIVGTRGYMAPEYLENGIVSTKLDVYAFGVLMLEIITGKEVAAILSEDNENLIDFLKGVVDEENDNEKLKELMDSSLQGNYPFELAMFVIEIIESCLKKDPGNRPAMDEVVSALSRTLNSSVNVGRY
# LjLYS12, sequence (D3KTZ9 entry or part of it): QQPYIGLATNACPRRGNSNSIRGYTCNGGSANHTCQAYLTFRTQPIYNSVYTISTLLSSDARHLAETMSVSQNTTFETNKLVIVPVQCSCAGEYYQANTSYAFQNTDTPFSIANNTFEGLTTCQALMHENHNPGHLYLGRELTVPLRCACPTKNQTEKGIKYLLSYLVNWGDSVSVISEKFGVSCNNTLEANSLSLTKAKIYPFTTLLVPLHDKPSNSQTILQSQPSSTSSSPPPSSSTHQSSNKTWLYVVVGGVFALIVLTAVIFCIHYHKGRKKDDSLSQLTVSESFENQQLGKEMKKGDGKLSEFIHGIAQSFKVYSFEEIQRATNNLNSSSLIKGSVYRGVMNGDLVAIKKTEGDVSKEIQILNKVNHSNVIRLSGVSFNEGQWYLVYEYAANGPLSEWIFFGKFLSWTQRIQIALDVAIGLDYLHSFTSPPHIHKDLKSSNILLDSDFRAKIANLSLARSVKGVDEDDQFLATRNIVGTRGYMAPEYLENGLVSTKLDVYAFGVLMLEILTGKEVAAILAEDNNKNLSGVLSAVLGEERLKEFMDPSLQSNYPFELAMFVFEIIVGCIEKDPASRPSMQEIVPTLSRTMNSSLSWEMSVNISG
# PvLYR3, sequence (V7CFC1 entry or part of it): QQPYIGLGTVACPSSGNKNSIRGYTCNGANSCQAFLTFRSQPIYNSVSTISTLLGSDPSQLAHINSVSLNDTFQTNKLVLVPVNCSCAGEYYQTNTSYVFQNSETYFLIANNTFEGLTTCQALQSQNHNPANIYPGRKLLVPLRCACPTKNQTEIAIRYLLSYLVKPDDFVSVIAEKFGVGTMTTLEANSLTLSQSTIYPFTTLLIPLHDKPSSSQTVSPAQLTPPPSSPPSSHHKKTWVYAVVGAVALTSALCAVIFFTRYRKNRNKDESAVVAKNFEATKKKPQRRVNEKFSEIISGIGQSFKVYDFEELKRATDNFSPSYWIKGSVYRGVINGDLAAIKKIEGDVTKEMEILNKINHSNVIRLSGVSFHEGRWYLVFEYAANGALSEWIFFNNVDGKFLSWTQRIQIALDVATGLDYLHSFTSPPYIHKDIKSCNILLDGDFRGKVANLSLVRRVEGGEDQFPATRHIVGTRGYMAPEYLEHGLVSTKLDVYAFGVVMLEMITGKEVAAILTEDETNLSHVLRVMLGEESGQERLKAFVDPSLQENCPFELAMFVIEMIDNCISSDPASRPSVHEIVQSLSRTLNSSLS
# GmLYR3-11, sequence (I1LHL9 entry or part of it): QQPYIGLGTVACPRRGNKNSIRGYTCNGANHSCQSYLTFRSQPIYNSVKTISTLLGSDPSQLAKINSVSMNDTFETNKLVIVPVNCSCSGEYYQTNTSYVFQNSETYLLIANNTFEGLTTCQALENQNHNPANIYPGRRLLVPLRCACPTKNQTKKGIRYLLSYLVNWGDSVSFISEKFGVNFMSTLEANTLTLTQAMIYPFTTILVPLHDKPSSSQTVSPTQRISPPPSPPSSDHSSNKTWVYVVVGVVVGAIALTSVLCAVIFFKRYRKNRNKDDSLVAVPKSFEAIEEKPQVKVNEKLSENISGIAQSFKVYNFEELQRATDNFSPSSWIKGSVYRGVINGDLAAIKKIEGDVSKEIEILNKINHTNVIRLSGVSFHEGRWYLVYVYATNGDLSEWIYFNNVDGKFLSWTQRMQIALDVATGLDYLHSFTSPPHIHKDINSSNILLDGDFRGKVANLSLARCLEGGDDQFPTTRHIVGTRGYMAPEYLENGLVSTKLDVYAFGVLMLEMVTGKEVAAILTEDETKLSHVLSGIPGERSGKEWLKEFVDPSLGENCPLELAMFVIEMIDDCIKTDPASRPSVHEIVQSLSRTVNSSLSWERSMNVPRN
# GmLYR3-1, sequence (A5YJW2 entry or part of it): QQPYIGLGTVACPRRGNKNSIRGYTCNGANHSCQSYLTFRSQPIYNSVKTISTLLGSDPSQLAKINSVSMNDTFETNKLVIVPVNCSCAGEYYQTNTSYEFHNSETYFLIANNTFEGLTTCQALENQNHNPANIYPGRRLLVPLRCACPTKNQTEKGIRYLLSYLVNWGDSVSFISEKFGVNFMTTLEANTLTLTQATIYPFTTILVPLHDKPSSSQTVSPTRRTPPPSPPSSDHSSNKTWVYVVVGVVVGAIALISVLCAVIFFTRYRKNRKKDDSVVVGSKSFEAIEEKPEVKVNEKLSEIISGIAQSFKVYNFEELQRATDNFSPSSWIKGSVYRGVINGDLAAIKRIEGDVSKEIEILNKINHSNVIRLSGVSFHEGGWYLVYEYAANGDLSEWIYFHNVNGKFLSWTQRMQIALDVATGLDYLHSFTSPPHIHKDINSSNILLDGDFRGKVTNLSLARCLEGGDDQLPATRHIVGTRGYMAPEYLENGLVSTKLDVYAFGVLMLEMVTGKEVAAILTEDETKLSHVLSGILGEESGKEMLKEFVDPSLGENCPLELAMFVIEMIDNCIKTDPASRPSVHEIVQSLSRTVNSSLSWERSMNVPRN
# LYR3, sequence (G7KAT5 entry or part of it): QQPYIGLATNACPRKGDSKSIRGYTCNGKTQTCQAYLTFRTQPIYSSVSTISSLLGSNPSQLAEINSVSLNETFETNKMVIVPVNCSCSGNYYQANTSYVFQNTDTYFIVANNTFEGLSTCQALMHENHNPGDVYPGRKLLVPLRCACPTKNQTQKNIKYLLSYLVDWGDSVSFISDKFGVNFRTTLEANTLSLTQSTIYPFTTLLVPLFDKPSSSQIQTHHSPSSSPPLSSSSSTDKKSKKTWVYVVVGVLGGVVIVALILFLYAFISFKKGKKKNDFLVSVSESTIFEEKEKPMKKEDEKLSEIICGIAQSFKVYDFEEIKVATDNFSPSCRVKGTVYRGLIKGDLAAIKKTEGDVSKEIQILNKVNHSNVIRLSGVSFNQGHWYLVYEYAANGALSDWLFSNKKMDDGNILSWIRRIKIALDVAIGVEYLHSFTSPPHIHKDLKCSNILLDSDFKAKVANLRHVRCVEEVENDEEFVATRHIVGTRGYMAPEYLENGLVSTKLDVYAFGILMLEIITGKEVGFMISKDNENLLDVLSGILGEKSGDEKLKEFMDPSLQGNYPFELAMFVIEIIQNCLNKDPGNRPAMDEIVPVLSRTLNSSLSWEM
compound,measurement,setting,value
"CCCCCCCC/C=C\CCCCCCCC(=O)N[C@H]1[C@H](O[C@H]2[C@H](O)[C@@H](NC(C)=O)[C@H](O[C@H]3[C@H](O)[C@@H](NC(C)=O)[C@H](O[C@H]4[C@H](O)[C@@H](NC(C)=O)C(O)O[C@@H]4COS(=O)(=O)O)O[C@@H]3CO)O[C@@H]2CO)O[C@H](CO)[C@@H](O)[C@@H]1O (stereo partly drawn) [LCO-IV(S, C18:1Δ9)]",binding of the radiolabeled photoactivatable ligand to the 100 kDa polypeptide in presence of excess competitor,[1],inhibited
same,Ki,LYR3,13.5 nM
same,Ki,PsLYR3,16 nM
same,Ki,GmLYR3-1,12 nM
same,Ki,GmLYR3-11,19 nM
same,Ki,LjLYS12,7 nM
same,Ki,PvLYR3,13 nM
"CCCCCC/C=C\CCCCCCCC(=O)N[C@H]1[C@H](O[C@H]2[C@H](O)[C@@H](NC(C)=O)[C@H](O[C@H]3[C@H](O)[C@@H](NC(C)=O)[C@H](O[C@H]4[C@H](O)[C@@H](NC(C)=O)C(O)O[C@@H]4COS(=O)(=O)O)O[C@@H]3CO)O[C@@H]2CO)O[C@H](CO)[C@@H](O)[C@@H]1O (stereo partly drawn) [LCO-IV(S, C16:1Δ9)]",Ki,LYR3,21 nM
"CCCCCCCC/C=C\CCCCC/C=C/C(=O)N[C@H]1[C@H](O[C@H]2[C@H](O)[C@@H](NC(C)=O)[C@H](O[C@H]3[C@H](O)[C@@H](NC(C)=O)[C@H](O[C@H]4[C@H](O)[C@@H](NC(C)=O)C(O)O[C@@H]4COS(=O)(=O)O)O[C@@H]3CO)O[C@@H]2CO)O[C@H](CO)[C@@H](O)[C@@H]1O (stereo partly drawn) [LCO-IV(S, C18:2Δ2, 9)]",Ki,LYR3,7 nM
CCCCCCCCCCCCCCCC(=O)N[C@H]1[C@H](O[C@H]2[C@H](O)[C@@H](NC(C)=O)[C@H](O[C@H]3[C@H](O)[C@@H](NC(C)=O)[C@H](O[C@H]4[C@H](O)[C@@H](NC(C)=O)C(O)O[C@@H]4CO)O[C@@H]3CO)O[C@@H]2CO)O[C@H](CO)[C@@H](O)[C@@H]1O (stereo partly shown) [LCO-IV(C16:0)],Ki,LYR3,15 nM
same,Ki,PsLYR3,50 nM
same,Ki,GmLYR3-1,70 nM
same,Ki,GmLYR3-11,140 nM
same,Ki,LjLYS12,42 nM
same,Ki,PvLYR3,23 nM
CC(=O)N[C@H]1[C@H](O[C@H]2[C@H](O)[C@@H](NC(C)=O)[C@H](O[C@H]3[C@H](O)[C@@H](NC(C)=O)C(O)O[C@@H]3CO)O[C@@H]2CO)O[C@H](CO)[C@@H](O[C@@H]2O[C@H](CO)[C@@H](O[C@@H]3O[C@H](CO)[C@@H](O[C@@H]4O[C@H](CO)[C@@H](O)[C@H](O)[C@H]4NC(C)=O)[C@H](O)[C@H]3NC(C)=O)[C@H](O)[C@H]2NC(C)=O)[C@@H]1O (stereo partly shown) [CO-VI],Ki,LYR3,1200 nM
"CCCCCC/C=C\CCCCC/C=C/C(=O)N[C@H]1[C@H](O[C@H]2[C@H](O)[C@@H](NC(C)=O)[C@H](O[C@H]3[C@H](O)[C@@H](NC(C)=O)[C@H](O[C@H]4[C@H](O)[C@@H](NC(C)=O)C(O)O[C@@H]4COS(=O)(=O)O)O[C@@H]3CO)O[C@@H]2CO)O[C@H](CO)[C@@H](O)[C@@H]1O (stereo partly drawn) [LCO-IV(S, C16:2Δ2, 9)]",binding of the radiolabeled photoactivatable ligand to the 100 kDa polypeptide in presence of excess competitor,[1],completely abolished
same,Kd,PsLYR3; read-out: Affinity (Kd),31 nM
same,Kd,GmLYR3-1; read-out: Affinity (Kd),32 nM
same,Kd,GmLYR3-11; read-out: Affinity (Kd),64 nM
same,Kd,LjLYS12; read-out: Affinity (Kd),33 nM
same,Kd,PvLYR3; read-out: Affinity (Kd),40 nM
CCCCCC/C=C\CCCCCCCC(=O)N[C@H]1[C@H](O[C@H]2[C@H](O)[C@@H](NC(C)=O)C(O)O[C@@H]2CO)O[C@H](CO)[C@@H](O)[C@@H]1O (stereo partly shown) [LCO-II(C16:1Δ9)],Ki,LYR3,> 5000 nM
same,affinity / competition for binding to LYR3 (in words),LYR3,very low
"CCCCCCCCCCCCCCCC(=O)N[C@H]1[C@H](O[C@H]2[C@H](O)[C@@H](NC(C)=O)[C@H](O[C@H]3[C@H](O)[C@@H](NC(C)=O)[C@H](O[C@H]4[C@H](O)[C@@H](NC(C)=O)C(O)O[C@@H]4COS(=O)(=O)O)O[C@@H]3CO)O[C@@H]2CO)O[C@H](CO)[C@@H](O)[C@@H]1O (stereo partly drawn) [LCO-IV(S, C16:0)]",Ki,LYR3,26 nM
same,Ki,PsLYR3,24 nM
same,Ki,GmLYR3-1,18 nM
same,Ki,GmLYR3-11,32 nM
same,Ki,LjLYS12,11 nM
same,Ki,PvLYR3,17 nM
CCCCCCCC/C=C\CCCCCCCC(=O)N[C@H]1[C@H](O[C@H]2[C@H](O)[C@@H](NC(C)=O)[C@H](O[C@H]3[C@H](O)[C@@H](NC(C)=O)[C@H](O[C@H]4[C@H](O)[C@@H](NC(C)=O)C(O)O[C@@H]4CO)O[C@@H]3CO)O[C@@H]2CO)O[C@H](CO)[C@@H](O)[C@@H]1O (stereo partly shown) [LCO-IV(C18:1Δ9)],binding of the radiolabeled photoactivatable ligand to the 100 kDa polypeptide in presence of excess competitor,[1],inhibited
same,Ki,LYR3,22 nM
CC(=O)N[C@H]1[C@H](O[C@H]2[C@H](O)[C@@H](NC(C)=O)[C@H](O[C@H]3[C@H](O)[C@@H](NC(C)=O)C(O)O[C@@H]3CO)O[C@@H]2CO)O[C@H](CO)[C@@H](O[C@@H]2O[C@H](CO)[C@@H](O[C@@H]3O[C@H](CO)[C@@H](O)[C@H](O)[C@H]3NC(C)=O)[C@H](O)[C@H]2NC(C)=O)[C@@H]1O (stereo partly shown) [CO-V],Ki,LYR3,12000 nM
same,Ki,PsLYR3,> 10000 nM
same,Ki,GmLYR3-1,> 10000 nM
same,Ki,GmLYR3-11,> 10000 nM
same,Ki,LjLYS12,> 10000 nM
same,Ki,PvLYR3,> 10000 nM
CCCCCC/C=C\CCCCCCCC(=O)N[C@H]1[C@H](O[C@H]2[C@H](O)[C@@H](NC(C)=O)[C@H](O[C@H]3[C@H](O)[C@@H](NC(C)=O)[C@H](O[C@H]4[C@H](O)[C@@H](NC(C)=O)[C@H](O[C@H]5[C@H](O)[C@@H](NC(C)=O)C(O)O[C@@H]5CO)O[C@@H]4CO)O[C@@H]3CO)O[C@@H]2CO)O[C@H](CO)[C@@H](O)[C@@H]1O (stereo partly shown) [LCO-V(C16:1Δ9)],Ki,LYR3,4.3 nM
same,affinity / competition for binding to LYR3 (in words),LYR3,slightly higher
peptidoglycan,affinity / competition for binding to LYR3 (in words),LYR3,no competition
"CCCCCC/C=C\CCCCC/C=C/C(=O)N[C@H]1[C@H](O[C@H]2[C@H](O)[C@@H](NC(C)=O)[C@H](O[C@H]3[C@H](O)[C@@H](NC(C)=O)[C@H](O[C@H]4[C@H](O)[C@@H](NC(C)=O)C(O)O[C@@H]4CO)O[C@@H]3CO)O[C@@H]2CO)O[C@H](CO)[C@@H](O)[C@@H]1O (stereo partly shown) [LCO-IV(C16:2Δ2, 9)]",Ki,LYR3,30 nM
CCCCCC/C=C\CCCCCCCC(=O)N[C@H]1[C@H](O[C@H]2[C@H](O)[C@@H](NC(C)=O)[C@H](O[C@H]3[C@H](O)[C@@H](NC(C)=O)C(O)O[C@@H]3CO)O[C@@H]2CO)O[C@H](CO)[C@@H](O)[C@@H]1O (stereo partly shown) [LCO-III(C16:1Δ9)],Ki,LYR3,79 nM
